Tests used:
Assay type in all cases: in vivo
[1] = system: rice leafroller (Cnaphalocrocis medinalis); experiment: Insecticidal effect on rice leafroller (Test Example 3); conditions: 500 ppm, 25° C., humidity 70%; for Insecticidal effect, Test Example 3: rice lamina immersed; for Insecticidal effect, Test Example 3 / Insecticidal effect on rice leafroller (Test Example 3), judged grade: four days after inoculation; for Insecticidal effect on rice leafroller (Test Example 3), judged grade / Insecticidal effect (Test Example 3), judged from mortality: rice lamina dip; for Insecticidal effect on rice leafroller (Test Example 3), judged grade: third-instar larvae; for Insecticidal effect (Test Example 3), judged from mortality: 4 days after inoculation
Outline: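 Groups of 10 third-instar larvae, in triplicate, are placed on air-dried lamina resting on wet filter paper. Incubation runs four days at 25° C with 70% humidity before survivors and dead are tallied.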

[2] = system: common cutworm (Spodoptera Litura); experiment: Insecticidal effect on common cutworm (Test Example 2); conditions: 500 ppm, 25° C.; for Insecticidal effect, Test Example 2: cabbage leaf immersed; for Insecticidal effect, Test Example 2 / Insecticidal effect on common cutworm (Test Example 2), judged grade: eight days after inoculation; for Insecticidal effect on common cutworm (Test Example 2), judged grade / Insecticidal effect (Test Example 2), judged from mortality: cabbage leaf dip; for Insecticidal effect on common cutworm (Test Example 2), judged grade: second-instar larvae; for Insecticidal effect (Test Example 2), judged from mortality: 8 days after inoculation
Outline: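 Mortality was scored 8 days post-inoculation, using three groups of 10 second-instar larvae kept at 25 °C in closed 9 cm dishes on air-dried treated material. The insecticidal effect was graded from calculated mortality by a set criterion.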

[3] = system: diamondback moth (Plutella xylostella); experiment: Insecticidal effect on diamondback moth (Test Example 1); conditions: for Insecticidal effect, Test Example 1 / Insecticidal effect (Test Example 1), judged from mortality: diamondback moth; for Insecticidal effect on diamondback moth (Test Example 1), judged grade: mortality judged according to the criterion shown in Test Example 1; for Insecticidal effect (Test Example 1), judged from mortality: judged by the criterion of Test Example 1
Outline: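 Chinese cabbage seedlings carrying eggs laid by released adult moths were immersed in treatment, air-dried and held at 25° C. Hatched insects were counted six days after immersion, and mortality was calculated and scored against a fixed criterion. Three replicate groups of 10 insects were used.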

[4] = rice leafroller third-instar larvae
[5] = common cutworm second-instar larvae
[6] = mortality judged by criterion of Test Example 1
[7] = third-instar larvae of rice leafroller
[8] = second-instar larvae of common cutworm
[9] = judged by the mortality criterion of Test Example 1

For `CC(C)NC(=O)c1c(Cl)cccc1C(=O)Nc1ccc2c(c1)OC(F)(F)C(F)O2` (stereo not drawn) [compound 1163], the “Insecticidal effect, Test Example 3” value [1, 4] was “A (100)”, the “Insecticidal effect, Test Example 2” value [2, 5] was “A (100)” and the “Insecticidal effect, Test Example 1” value [3, 6] was “A (100)”.
For `COc1cccc(C(=O)Nc2ccc(Br)cc2C)c1C(=O)NC(C)C` [compound 768], the “Insecticidal effect on rice leafroller (Test Example 3), judged grade” value (from here on “Insecticidal effect on rice leafroller”) [1] was “A (100)”, the “Insecticidal effect on common cutworm (Test Example 2), judged grade” value (“Insecticidal effect on common cutworm” for short) [2] was “B (99-90)” and the “Insecticidal effect on diamondback moth (Test Example 1), judged grade” value (“Insecticidal effect on diamondback moth” below) [3] was “A (100)”.
With `COc1ccc(C#CC(C)(C)NC(=O)c2c(Cl)cccc2C(=O)Nc2ccc(C(F)(F)C(F)(F)F)cc2C)cc1` [compound 1572] the “Insecticidal effect (Test Example 3), judged from mortality” value [1, 7] was “A (100)”, the “Insecticidal effect (Test Example 2), judged from mortality” value [2, 8] was “A (100)” and the “Insecticidal effect (Test Example 1), judged from mortality” value [3] was “A (100)”.
With `Cc1cc(C(F)(F)C(F)(F)F)ccc1NC(=O)c1cccc(I)c1C(=O)N(C)C` [compound 1068] the “Insecticidal effect, Test Example 3” value [1, 4] was “A (100)”, the “Insecticidal effect, Test Example 2” value [2, 5] was “A (100)” and the “Insecticidal effect, Test Example 1” value [3, 6] was “A (100)”.
For `Cc1ccc(F)cc1NC(=O)c1cccc([N+](=O)[O-])c1C(=O)NC(C)C` [compound 676], the “Insecticidal effect on rice leafroller” value [1] was “A (100)”, the “Insecticidal effect on common cutworm” value [2] was “C (89-80)” and the “Insecticidal effect on diamondback moth” value [3] was “A (100)”.
`CC(C)(C)NC(=O)c1c(F)cccc1C(=O)Nc1ccc(C(F)(F)C(F)(F)F)cc1Cl` [compound 1508] was tested, and the “Insecticidal effect (Test Example 3), judged from mortality” value [1, 7] was “A (100)”, the “Insecticidal effect (Test Example 2), judged from mortality” value [2, 8] was “C (89-80)” and the “Insecticidal effect (Test Example 1), judged from mortality” value [3] was “A (100)”.
For `CC(C)NC(=O)c1c(C(=O)Nc2ccc(C(F)(C(F)(F)F)C(F)(F)F)cc2Cl)cccc1[N+](=O)[O-]` [compound 703], the “Insecticidal effect on rice leafroller” value [1] was “A (100)”, the “Insecticidal effect on common cutworm” value [2] was “A (100)” and the “Insecticidal effect on diamondback moth” value [3] was “A (100)”.
`CC(C)NC(=O)c1c(F)cccc1C(=O)Nc1ccc(C(F)(C(F)(F)F)C(F)(F)F)cc1` [compound 474] was tested, and the “Insecticidal effect on rice leafroller” value [1] was “A (100)”, the “Insecticidal effect on common cutworm” value [2] was “B (99-90)” and the “Insecticidal effect on diamondback moth” value [3] was “A (100)”.
For `Cc1cc(C(F)(F)C(F)(F)F)ccc1NC(=O)c1cccc(Cl)c1C(=O)NC(C)(C)C#Cc1ccc(Br)cn1` [compound 1649], the “Insecticidal effect (Test Example 3), judged from mortality” value [1, 7] was “A (100)”, the “Insecticidal effect (Test Example 2), judged from mortality” value [2, 8] was “A (100)” and the “Insecticidal effect (Test Example 1), judged from mortality” value [3] was “A (100)”.
For `COc1cc(C(F)(F)C(F)(F)F)ccc1NC(=O)c1cccc(I)c1C(=O)NC(C)C` [compound 1388], the “Insecticidal effect, Test Example 3” value [1, 4] was “A (100)”, the “Insecticidal effect, Test Example 2” value [2, 5] was “D (79-50)” and the “Insecticidal effect, Test Example 1” value [3, 6] was “A (100)”.
`CC(C)NC(=O)c1c(C(=O)Nc2ccc(SC(F)(F)F)cc2)cccc1[N+](=O)[O-]` [compound 996] was tested, and the “Insecticidal effect, Test Example 3” value [1, 4] was “A (100)”, the “Insecticidal effect, Test Example 2” value [2, 5] was “A (100)” and the “Insecticidal effect, Test Example 1” value [3, 6] was “A (100)”.
For `Cc1cc(OC(F)F)ccc1NC(=O)c1cccc(I)c1C(=O)NC(C)C` [compound 387, N^1-(4-difluoromethoxy-2-methylphenyl)-3-iodo-N^2-isopropylphthalic acid diamide], the “Insecticidal effect, Test Example 3” value [1, 7] was “A (100)”, the “Insecticidal effect, Test Example 2” value [2, 8] was “A (100)” and the “Insecticidal effect, Test Example 1” value [3, 9] was “A (100)”.
In the case of `CC(C)(C)NC(=O)c1c(Cl)cccc1C(=O)Nc1ccc(C(F)(F)F)cc1` [compound 934], the “Insecticidal effect on rice leafroller” value [1] is reported as “A (100)”, the “Insecticidal effect on common cutworm” value [2] is reported as “A (100)” and the “Insecticidal effect on diamondback moth” value [3] is reported as “A (100)”.
In the case of `Cc1cc(C#CC(C)(C)C)ccc1NC(=O)c1cccc(I)c1C(=O)NC(C)C` [compound 1305], the “Insecticidal effect, Test Example 3” value [1, 4] is reported as “A (100)”, the “Insecticidal effect, Test Example 2” value [2, 5] is reported as “A (100)” and the “Insecticidal effect, Test Example 1” value [3, 6] is reported as “A (100)”.
`Cc1cc(C(F)(F)C(F)(F)F)ccc1NC(=O)c1cccc(Cl)c1C(=O)NCc1ccccc1` [compound 1307] was tested, and the “Insecticidal effect, Test Example 3” value [1, 4] was “A (100)”, the “Insecticidal effect, Test Example 2” value [2, 5] was “A (100)” and the “Insecticidal effect, Test Example 1” value [3, 6] was “A (100)”.
In the case of `Cc1c(Cl)ccc(NC(=O)c2cccc(I)c2C(=O)NC(C)C)c1C` [compound 365], the “Insecticidal effect, Test Example 3” value [1, 7] is reported as “A (100)”, the “Insecticidal effect, Test Example 2” value [2, 8] is reported as “A (100)” and the “Insecticidal effect, Test Example 1” value [3, 9] is reported as “A (100)”.
`CCC(C)(C)NC(=O)c1c(I)cccc1C(=O)Nc1ccc(OC(F)(F)F)cc1C` [compound 1566] was tested, and the “Insecticidal effect (Test Example 3), judged from mortality” value [1, 7] was “A (100)”, the “Insecticidal effect (Test Example 2), judged from mortality” value [2, 8] was “A (100)” and the “Insecticidal effect (Test Example 1), judged from mortality” value [3] was “A (100)”.
`Cc1cc(Oc2c(F)c(F)c(F)c(F)c2F)ccc1NC(=O)c1cccc(Cl)c1C(=O)NC(C)C` [compound 157] was tested, and the “Insecticidal effect, Test Example 3” value [1, 7] was “A (100)”, the “Insecticidal effect, Test Example 2” value [2, 8] was “A (100)” and the “Insecticidal effect, Test Example 1” value [3, 9] was “A (100)”.
For `CC(C)(C)NC(=O)c1c(I)cccc1C(=O)Nc1ccc2c(c1Cl)OC(F)(F)C(F)(F)O2` [compound 1644], the “Insecticidal effect (Test Example 3), judged from mortality” value [1, 7] was “A (100)”, the “Insecticidal effect (Test Example 2), judged from mortality” value [2, 8] was “A (100)” and the “Insecticidal effect (Test Example 1), judged from mortality” value [3] was “A (100)”.
In the case of `CC(C)(C)NC(=O)c1c(I)cccc1C(=O)Nc1ccc(SC(F)(F)Br)cc1` [compound 1115], the “Insecticidal effect, Test Example 3” value [1, 4] is reported as “A (100)”, the “Insecticidal effect, Test Example 2” value [2, 5] is reported as “A (100)” and the “Insecticidal effect, Test Example 1” value [3, 6] is reported as “A (100)”.
With `C#CC(C)(C)NC(=O)c1c(I)cccc1C(=O)Nc1ccc(OC(F)(F)F)cc1C` [compound 1634] the “Insecticidal effect (Test Example 3), judged from mortality” value [1, 7] was “A (100)”, the “Insecticidal effect (Test Example 2), judged from mortality” value [2, 8] was “A (100)” and the “Insecticidal effect (Test Example 1), judged from mortality” value [3] was “A (100)”.
`CCCN(CC)C(=O)c1c(I)cccc1C(=O)Nc1ccc(OC(F)(F)F)cc1C` [compound 1574] was tested, and the “Insecticidal effect (Test Example 3), judged from mortality” value [1, 7] was “A (100)”, the “Insecticidal effect (Test Example 2), judged from mortality” value [2, 8] was “A (100)” and the “Insecticidal effect (Test Example 1), judged from mortality” value [3] was “A (100)”.
`Cc1cc(Cl)ccc1NC(=O)c1ccc(Cl)cc1C(=O)NC(C)C` [compound 177] was tested, and the “Insecticidal effect, Test Example 3” value [1, 7] was “A (100)”, the “Insecticidal effect, Test Example 2” value [2, 8] was “A (100)” and the “Insecticidal effect, Test Example 1” value [3, 9] was “A (100)”.
`CCN(CC)C(=O)c1c(I)cccc1C(=O)Nc1ccc(C(F)(C(F)(F)F)C(F)(F)F)cc1C` [compound 1532] was tested, and the “Insecticidal effect (Test Example 3), judged from mortality” value [1, 7] was “A (100)”, the “Insecticidal effect (Test Example 2), judged from mortality” value [2, 8] was “A (100)” and the “Insecticidal effect (Test Example 1), judged from mortality” value [3] was “A (100)”.

Source: patent US6362369B1, “Phthalic acid diamide derivatives fluorine-containing aniline compounds as starting material, agricultural and horticultural insecticides, and a method for application of the insecticides” (Nihon Nohyaku Co., Ltd., priority 1997, dated 2002)
